# Measurements taken from US10159655B2, “Agent for inhibiting odor of pyrazine derivatives” (Kao Corporation, priority 2012, dated 2018).
# Molecular target: T1, olfactory receptor OR5K1 (Homo sapiens, UniProt Q8NHB7)
# T1 construct: expressed in transfected cells; host or cells: HEK293
# T1 sequence (Q8NHB7 1-308): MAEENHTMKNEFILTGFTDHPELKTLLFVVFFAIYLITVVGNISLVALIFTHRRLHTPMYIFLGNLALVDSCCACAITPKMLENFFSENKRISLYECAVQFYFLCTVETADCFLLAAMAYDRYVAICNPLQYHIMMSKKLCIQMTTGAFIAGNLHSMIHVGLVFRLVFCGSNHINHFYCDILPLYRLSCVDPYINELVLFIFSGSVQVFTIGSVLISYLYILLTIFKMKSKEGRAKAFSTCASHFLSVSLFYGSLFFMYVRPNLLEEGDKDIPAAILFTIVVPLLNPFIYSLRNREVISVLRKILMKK
# Test: Luciferase reporter gene assay: response of olfactory receptor OR5K1 expressed in HEK293 cells to pyrazine compounds
# Type: cell-based
# Details: 0, 3, 10, 30, 100, 300 and 1000 μM; HEK293 cells with RTP1S variant; FIG. 2
# Text: Human olfactory receptors were cloned based on sequence information registered in GenBank by PCR using human genomic DNA female (G1521: Promega Corporation) as a template. Each gene amplified by PCR was inserted into a pENTR vector (Invitrogen Inc.) in accordance with the manual and was recombined into the NotI and AscI site located downstream of a Flag-Rho tag sequence in a pME18S vector using the NotI and AscI site present in the pENTR vector.
# An RTP1S variant gene (SEQ ID NO: 3) encoding an RTP1S variant (SEQ ID NO: 4) was inserted into the EcoRI and XhoI site of a pME18S vector.
# HEK293 cells expressing 373 types of human olfactory receptors were produced. A reaction solution having a composition shown in Table 1 was prepared and left to stand in a clean bench for 15 min and then was dispensed in each well of a 96-well plate (Becton, Dickinson and Company). Subsequently, HEK293 cells (100 μL, 3×10^5 cells/cm^2) were seeded in each well and cultured in an incubator at 37° C. and 5% CO2 for 24 hr.
# An olfactory receptor expressed in HEK293 cells couples with endogenous Gas in the cells to activate adenylate cyclase and thereby increases the amount of intracellular cAMP. In this study, the response of a pyrazine derivative was measured by luciferase reporter gene assay which monitors an increase in amount of intracellular cAMP as the luminescence value derived from a firefly luciferase gene (fluc2P-CRE-hygro). A Renilla luciferase gene was fused downstream of a CMV promoter (hRluc-CMV) and was also introduced to HEK293 cells as an internal standard to correct errors in transgenic efficiency and number of cells.
# The culture medium was removed from the culture produced in the above 3), and 75 μL of a solution prepared with a CD293 medium (Invitrogen Inc.) so as to contain a pyrazine derivative (1 mM, 2,6-dimethylpyrazine) was added thereto. The cells were cultured in a CO2 incubator for 2.5 hr to sufficiently express the luciferase gene in the cells. The luciferase activity was measured with a Dual-Glo™ luciferase assay system (Promega Corporation) in accordance with the operating manual of the system. The fold increases were calculated by dividing the luminescence value derived from firefly luciferase induced by stimulation with a pyrazine derivative at each concentration by the luminescence value in cells not stimulated with the pyrazine derivative and were used as an index of response strength.
# Olfactory receptor OR5K1 (SEQ ID NO: 2) was expressed in HEK293 cells together with an RTP1S variant (SEQ ID NO: 4) by the same procedure as in Example 1, and the dependency of the response on the concentration (0, 3, 10, 30, 100, 300, and 1000 μM) of various pyrazine compounds was investigated. The pyrazine compounds used in this Example were pyrazine and pyrazine derivatives selected from the group consisting of 2-methylpyrazine, 2,3-dimethylpyrazine, 2,5-dimethylpyrazine, 2,3,5-trimethylpyrazine, 2,3,5,6-tetramethylpyrazine, and 2-ethylpyrazine.
row,dependency of the response of OR5K1 on the concentration of pyrazine compounds,Structure (SMILES)
1,dose-dependently responded,"Cc1cncc(C)n1 [2,6-dimethylpyrazine]"
2,dose-dependently responded,"Cc1nc(C)c(C)nc1C [2,3,5,6-tetramethylpyrazine]"
3,did not respond,c1cnccn1 [pyrazine]
4,dose-dependently responded,"Cc1cnc(C)c(C)n1 [2,3,5-trimethylpyrazine]"
5,dose-dependently responded,Cc1cnccn1 [2-methylpyrazine]
6,dose-dependently responded,"Cc1cnc(C)cn1 [2,5-dimethylpyrazine]"

row,Structure (SMILES),dependency of the response of OR5K1 on the concentration of pyrazine compounds
1,CCc1cnccn1 [2-ethylpyrazine],dose-dependently responded
2,"Cc1nccnc1C [2,3-dimethylpyrazine]",dose-dependently responded

# Same assay, conditions: 1 mM; 373 types of human olfactory receptors screened in HEK293 cells; FIG. 1
row,"response of olfactory receptor to 2,6-dimethylpyrazine (fold increase of luciferase luminescence)",Structure (SMILES)
1,responded,"Cc1cncc(C)n1 [2,6-dimethylpyrazine]"
